Assay results published in patent US9611265B2, “Tropomyosin-related kinase (TRK) inhibitors” (Genzyme Corporation, priority 2013, dated 2017).

How the values were obtained:
[1] = test system: Monosodium Lodoacetate Induced Osteoarthritis; assay: Monosodium Iodoacetate Induced Osteoarthritis, weight bearing; type: in vivo, Male Wistar rats; settings: for comparison with MIA/LRS at day 35: day 35, p<0.05
From the text: Male Wistar rats were acclimated to the testing facility for 5 days. The rats were individually housed in micro-isolator shoe-box polycarbonate cages with cob bedding and water bottles. Dry pelleted food of known composition and nutritional components was provided ad libitum Animals were randomized by treatment type using an online random number generator. Each treatment group was assigned a number, entered into the random number generator, recorded then translated back to the associated treatment. All injections were given in the left leg unless the treatment indicated “Contralateral” in which case the injection was given in the right leg. Both legs were shaved on all animals at the time of the treatment injections to blind the test administrator. The rats were weighed the day prior to injection with monosodium iodoacetate (MIA), the agent used to induce osteoarthritis in the animals. The day of injection, rats from groups 2-8 received a subcutaneous (SC) dose of buprenorphine at least one hour prior to induction. […] Naïve animals were then placed in recovery. All other animals received an injection of MIA. In animals receiving MIA, the hind leg was flexed and an injection of MIA (25 μL) was injected into the intra-articular space using a 27 gauge ½ inch needle. Standard postoperative care was performed (twice daily for 48 hours). On Day 8 the test article was administered as described above. On Days −1, 7, 14, 21, 28, and 35 post-induction, weight bearing was assessed. A weight bearing scale was utilized using a plexiglass chamber to assess the amount of weight distributed in each hind limb. The animals were acclimated to the chamber for at least 5 minutes prior to testing and the weight distribution was recorded 5 times. The animals were terminated at day 36. Both stifles were collected from each animal; the skin was removed from the joint and the patella was removed while leaving as much of the fat pad intact with the joint. The stifle was placed in the appropriate cassette with rolled gauze to secure the stifle in the cassette and then placed into 4% Paraformaldehyde. These samples were examined histologically.

PGPS Knee Arthritis = assay: Reactivated Peptidoglycan-Polysaccharide Knee Arthritis; type: in vivo, Male Lewis rats; settings: for gait scores and deficiency, first reactivation: days 1-4
From the text: Male Lewis rats were acclimated to the testing facility for 7 days. The rats were housed in 5 per cage in shoe-box polycarbonate cages with wire tops, wood chip bedding and suspended food and water bottles. On day −21, the male Lewis rats were randomized into treatment groups by body weight. The rats were anesthetized and injected with peptidoglycan-polysaccharide (PGPS) into the right knee to induce PGPS arthritis. Arthritis was reactivated on days 0 and 14 by an IV tail injection of PGPS. […] Gait analysis was performed by applying ink to the ventral surface of the foot and documenting weight bearing during movement across paper. […] Right knees were removed, trimmed of extraneous tissue, and collected into 10% neutral buffered formalin. After two days in the formalin buffer and three days in 10% formic acid decalcifier, the knees were cut into two approximately equal halves in the frontal plane and processed for paraffin embedding and stained with T.Blue. Histological examinations were subsequently performed for bone resorption, inflammation, pannus and cartilage damage. […] Gait scores were analyzed using a Kruskal-Wallis test (non-parametric ANOVA) with Dunn's multiple comparison post-test. Histopathology scores were analyzed using a Kruskal-Wallis test (non-parametric ANOVA) with Dunn's multiple comparison post-test.

[2] = intra-articular on day -7 (Triamcinolone 0.06 mg; test compound 1 mg)
[3] = Triamcinolone 0.06 mg intra-articular

| SMILES | weight bearing efficacy ([1]; 10 μg Contralateral) | weight bearing efficacy ([1]; 10 μg Ipsilateral, intra-articular on Day 8) | weight bearing efficacy ([1]; 30 μg Contralateral) | comparison with MIA/LRS at day 35 ([1]; 30 μg Ipsilateral) | weight bearing efficacy ([1]; 30 μg Ipsilateral, intra-articular on Day 8) | systemic pain relief (weight bearing) ([1]; 100 μg Contralateral, 1-4 weeks) | comparison with MIA/LRS at day 35 ([1]; 100 μg Ipsilateral) | weight bearing efficacy ([1]; 100 μg Ipsilateral, intra-articular on Day 8) | body weight results ([1]; 10-100 μg intra-articular) | histopathology of the knee joint ([1]; day 36) | reduction of AUC for scores and deficiency, first reactivation (PGPS Knee Arthritis; 1 mg intra-articular) | reduction of AUC for scores and deficiency, second reactivation (PGPS Knee Arthritis; 1 mg intra-articular) | reduction of summed AUC for deficiency (PGPS Knee Arthritis; 1 mg intra-articular) [%] | histopathology, reductions in all parameters (PGPS Knee Arthritis; day 18, bone resorption, inflammation, pannus, cartilage damage (Triamcinolone 0.06 mg; test compound 1 mg)) | knee caliper measurements (PGPS Knee Arthritis; [2]) | reduction in knee caliper AUC (PGPS Knee Arthritis; [2]) | gait scores and deficiency, first reactivation (PGPS Knee Arthritis; [2]) | gait scores and deficiency, second reactivation (PGPS Knee Arthritis; intra-articular on day -7 (Triamcinolone 0.06 mg; test compound 1 mg), days 15-18) | reduction of gait scores and deficiency AUC, each reactivation calculated separately (PGPS Knee Arthritis; [3]) | reduction of gait scores and deficiency AUC, summed (PGPS Knee Arthritis; [3]) |
| --- | --- | --- | --- | --- | --- | --- | --- | --- | --- | --- | --- | --- | --- | --- | --- | --- | --- | --- | --- | --- |
| COc1ccc(COc2ccc(Cn3c(N)nc4cc(-c5cnn(C)c5)cnc43)cc2OC)cc1 [Ex. 3-15, 3-(3-Methoxy-4-((4-methoxybenzyl)oxy)benzyl)-6-(1-methyl-1H-pyrazol-4-yl)-3H-imidazo[4,5-b]pyridin-2-amine] | efficacy at 3 and 4 weeks following administration | efficacy was observed at 2 through 4 weeks following administration | efficacy at only the 3 week timepoint | MIA/LRS was significantly worse | effective throughout the four weeks following administration | did not show systemic pain relief at any timepoint | MIA/LRS was significantly worse | effective throughout the four weeks following administration | No adverse observations | no adverse changes | 92-93% | 85-86% | 84 | 49-94% | significantly reduced on day 14 | generally unaffected by treatment | significant reductions in gait scores and deficiency throughout the first reactivation | Scores were significantly reduced throughout the second reactivation, and reductions in deficiency were significant on days 15, 17, and 18 |  |  |
| C[C@]12C=CC(=O)C=C1CC[C@H]1[C@@H]3C[C@@H](O)[C@](O)(C(=O)CO)[C@@]3(C)C[C@H](O)[C@@]12F [Triamcinolone, reference compound] |  |  |  |  |  |  |  |  |  |  |  |  |  |  | significantly reduced on days 2, 4, 16, and 18 | 53-106% | significantly reduced gait scores and deficiency throughout the first reactivation (days 1-4) |  | 74-99% | 88-92% |
